The values below come from paper PMC11538350, “Synthetic studies on the tetrasubstituted D-ring of cystobactamids lead to potent terephthalic acid antibiotics” (Communications Chemistry, 2024).

In one assay the test system is E. faec. DSM-17050 (VRE). Nature of the assay: MIC assay. In kind it is cell-based, Enterococcus faecium. The settings on record: Enterococcus; read-out: MIC E. faec. DSM-17050 (VRE). Here is the method: (§1) All cystobactamids were evaluated in MIC-assays on a panel of representative ESKAPE strains with focus on A. baumannii (Tables 1 and 2). Compared to our previous work[10],[17],[18], we specifically included more challenging test strains with known resistances against gyrase inhibitors.
(§2) 2.1 Materials and Methods
(§3) Strains were cultivated according to standard procedures. Bacterial cryo-cultures were
(§4) resuspended into fresh MHBII (cation adjusted) medium. The resuspension
(§5) assay plate (Corning, #3788).
(§6) in parallel as a positive control. […]

The subject of the next assay is ESKAPE strains. Description: MIC-assays on a panel of representative ESKAPE strains, summary in words. In kind it is cell-based. To be noted: summary of the MIC tables. The method, then:
as §1, §2, §3, §4, §5, §6

A further assay has as its system P. ae. PA14. Nature of the assay: MIC assay. The settings on record: Pseudomonas aeruginosa, PA14; reference strain; read-out: MIC P. ae. PA14. In kind it is cell-based. Here is the method:
as §1, §2, §3, §4, §5, §6

The next assay concerns E. coli LM705. Description: MIC assay. To be noted: Escherichia coli, LM705, read-out: MIC E. coli LM705. It is filed as cell-based. The method, then: as §1, §2, §3, §4, §5, §6
The subject of another assay is P. ae. PA14ΔmexAB. Description: MIC assay. It is filed as cell-based. The settings on record: Pseudomonas aeruginosa, read-out: MIC P. ae. PA14ΔmexAB. The method, then:
as §1, §2, §3, §4, §5, §6

The test system of a further assay is S. aur. ATCC-29213. Description: MIC assay. In kind it is cell-based. The settings on record: Staphylococcus aureus, ATCC29213; reference strain; read-out: MIC S. aur. ATCC-29213. The method, then:
as §1, §2, §3, §4, §5, §6

The test system of the next assay is K. pneum. R-1525. Nature of the assay: MIC assay. In kind it is cell-based. To be noted: Klebsiella pneumoniae; read-out: MIC K. pneum. R-1525. The method, then:
as §1, §2, §3, §4, §5, §6

The subject of the next assay is A. baum. R835. Nature of the assay: MIC assay. It is filed as cell-based. To be noted: Acinetobacter baumannii; read-out: MIC A. baum. R835. Here is the method:
as §1, §2, §3, §4, §5, §6

A further assay deals with A. baum. DSM-30008. Nature of the assay: MIC assay. The settings on record: Acinetobacter baumannii, DSM30008; reference strain; read-out: MIC A. baum. DSM-30008. In kind it is cell-based. The method, then: as §1, §2, §3, §4, §5, §6
The subject of another assay is K. pneum. CIP-104298. Nature of the assay: MIC assay. In kind it is cell-based. To be noted: Klebsiella pneumoniae, CIP104298; reference strain; read-out: MIC K. pneum. CIP-104298. The method, then:
as §1, §2, §3, §4, §5, §6

Assay [1] deals with S. pneum. DSM-11865 (PRSP). Nature of the assay: MIC assay. It is filed as cell-based. To be noted: Streptococcus pneumoniae; read-out: MIC S. pneum. DSM-11865 (PRSP). The method, then: as §1, §2, §3, §4, §5, §6
For another assay, the system named is E. cloacae ATCC BAA-2468. Description: MIC assay. In kind it is cell-based. To be noted: Enterobacter cloacae, ATCCBAA2468; read-out: MIC E. cloacae ATCC BAA-2468. The method, then: as §1, §2, §3, §4, §5, §6
For another assay, the system named is E. coli ATCC-25922. Nature of the assay: MIC assay. It is filed as cell-based. To be noted: Escherichia coli, ATCC25922; reference strain; read-out: MIC E. coli ATCC-25922. Here is the method: as §1, §2, §3, §4, §5, §6
The test system of another assay is A. baum. CIP-105742. Description: MIC assay. In kind it is cell-based. The settings on record: Acinetobacter baumannii, CIP105742; read-out: MIC A. baum. CIP-105742. Here is the method: as §1, §2, §3, §4, §5, §6
The subject of the next assay is K. pneum. KP10581. Nature of the assay: MIC assay. It is filed as cell-based. To be noted: Klebsiella pneumoniae; read-out: MIC K. pneum. KP10581. Here is the method:
as §1, §2, §3, §4, §5, §6

The test system of a further assay is A. baum. ATCC BAA-1710. Description: MIC assay. It is filed as cell-based. To be noted: Acinetobacter baumannii, ATCCBAA1710; read-out: MIC A. baum. ATCC BAA-1710. Here is the method: as §1, §2, §3, §4, §5, §6
A further assay deals with A. baum. CIP-107292. Nature of the assay: MIC assay. To be noted: Acinetobacter baumannii, CIP107292; read-out: MIC A. baum. CIP-107292. It is filed as cell-based. Here is the method: as §1, §2, §3, §4, §5, §6
Another assay has as its system E. ae. CIP 106754. Nature of the assay: MIC assay. It is filed as cell-based, Enterobacter aerogenes. To be noted: Klebsiella aerogenes, CIP106754, read-out: MIC E. ae. CIP 106754. Here is the method: as §1, §2, §3, §4, §5, §6

Values after ≈ are worked out from the molar mass of the structure shown.

The MIC is the lowest concentration found to suppress growth. Take `C#CC[C@H](NC(=O)c1ccc(NC(=O)c2ccc(C#N)cc2)cc1)C(=O)Nc1ccc(C(=O)Nc2ccc(CNc3ccc(C(=O)O)cc3)c(O)c2OC(C)C)cc1` [Cmpd. 41]: the MIC is 16 to 32 µg/mL (≈ 20.5 to 41.1 µM) in the assay on E. faec. DSM-17050 (VRE); above 64 µg/mL in the assay on P. ae. PA14; above 64 µg/mL with E. coli LM705; above 64 µg/mL with P. ae. PA14ΔmexAB; 16 to 32 µg/mL (≈ 20.5 to 41.1 µM) with S. aur. ATCC-29213; above 64 µg/mL in the assay with K. pneum. R-1525. The MIC in the assay with A. baum. R835 is above 8 µg/mL; with A. baum. DSM-30008 it was above 8 µg/mL; in the assay on K. pneum. CIP-104298, above 64 µg/mL; in [1] it was above 64 µg/mL; with E. cloacae ATCC BAA-2468, above 64 µg/mL; in the assay on E. coli ATCC-25922 it was above 64 µg/mL. The MIC was above 8 µg/mL with A. baum. CIP-105742; above 64 µg/mL in the assay with K. pneum. KP10581; 1 to 2 µg/mL (≈ 1.28 to 2.57 µM) in the assay with A. baum. ATCC BAA-1710; above 8 µg/mL in the assay with A. baum. CIP-107292; above 64 µg/mL in the assay with E. ae. CIP 106754. The “antibacterial activity on the pathogen panel, in words” value (“antibacterial activity” below) with ESKAPE strains was “inactive”.

Consider `C#CC[C@H](NC(=O)c1ccc(NC(=O)c2ccc(C#N)cc2)cc1)C(=O)Nc1ccc(C(=O)Nc2ccc(-c3cn(-c4ccc(C(=O)O)cc4)nn3)c(O)c2OC(C)C)cc1` [Cmpd. 43], for which the minimal inhibitory concentration (MIC) in the assay with E. faec. DSM-17050 (VRE), in the assay on P. ae. PA14, in the assay on E. coli LM705, in the assay with P. ae. PA14ΔmexAB, in the assay with S. aur. ATCC-29213 and in the assay on K. pneum. R-1525 was above 64 µg/mL each time. For the same compound, the MIC in the assay on A. baum. R835 was above 8 µg/mL; in the assay with A. baum. DSM-30008, above 8 µg/mL; in the assay on K. pneum. CIP-104298 it was above 64 µg/mL; in assay [1] it was above 64 µg/mL; in the assay with E. cloacae ATCC BAA-2468, above 64 µg/mL; in the assay on E. coli ATCC-25922 it was above 64 µg/mL. The MIC with A. baum. CIP-105742 is above 8 µg/mL; with K. pneum. KP10581, above 64 µg/mL; in the assay on A. baum. ATCC BAA-1710, above 8 µg/mL; in the assay on A. baum. CIP-107292, above 8 µg/mL; in the assay with E. ae. CIP 106754 it was above 64 µg/mL. For the same compound, the “antibacterial activity” value with ESKAPE strains was “inactive”.

On to `C#CC[C@H](NC(=O)c1ccc(NC(=O)c2ccc(C#N)cc2)cc1)C(=O)Nc1ccc(C(=O)Nc2ccc(-c3ccc(C(=O)O)cc3)c(O)c2OC(C)C)cc1` [Cmpd. 44], for which the MIC in the assay with E. faec. DSM-17050 (VRE) was below 0.03 µg/mL; in the assay with P. ae. PA14, above 64 µg/mL; in the assay on E. coli LM705 it was above 64 µg/mL; in the assay on P. ae. PA14ΔmexAB, above 64 µg/mL; in the assay with S. aur. ATCC-29213 it was above 64 µg/mL; in the assay on K. pneum. R-1525 it was above 64 µg/mL. The MIC (in the assay with A. baum. R835; in the assay on A. baum. DSM-30008; with K. pneum. CIP-104298; in assay [1]; in the assay with E. cloacae ATCC BAA-2468; in the assay on E. coli ATCC-25922) was above 64 µg/mL in each case. The MIC in the assay on A. baum. CIP-105742, in the assay with K. pneum. KP10581, with A. baum. ATCC BAA-1710, in the assay with A. baum. CIP-107292 and in the assay with E. ae. CIP 106754 was above 64 µg/mL in each case. Moreover, the “antibacterial activity” value in the assay on ESKAPE strains was “inactive”.

With `C#CC[C@H](NC(=O)c1ccc(NC(=O)c2ccc(C#N)cc2)cc1)C(=O)Nc1ccc(C(=O)Nc2ccc(-c3nc4ccc(C(=O)O)cc4[nH]3)c(O)c2OC(C)C)cc1` [Cmpd. 48], the MIC in the assay on E. faec. DSM-17050 (VRE) was 2 µg/mL (≈ 2.53 µM); with P. ae. PA14, above 64 µg/mL; with E. coli LM705, above 64 µg/mL; in the assay on P. ae. PA14ΔmexAB, above 64 µg/mL; in the assay on S. aur. ATCC-29213 it was 4 µg/mL (≈ 5.06 µM); in the assay on K. pneum. R-1525, above 64 µg/mL. The minimal inhibitory concentration (MIC) in the assay with A. baum. R835 is above 8 µg/mL; in the assay on A. baum. DSM-30008, 8 µg/mL (≈ 10.1 µM); in the assay on K. pneum. CIP-104298, above 64 µg/mL; in assay [1] it was above 64 µg/mL; in the assay on E. cloacae ATCC BAA-2468, above 64 µg/mL; in the assay on E. coli ATCC-25922, 64 µg/mL (≈ 81 µM). For the same compound, the MIC with A. baum. CIP-105742 is above 8 µg/mL; in the assay on K. pneum. KP10581, 16 µg/mL (≈ 20.3 µM); in the assay with A. baum. ATCC BAA-1710 it was above 8 µg/mL; in the assay on A. baum. CIP-107292, above 8 µg/mL; with E. ae. CIP 106754, above 64 µg/mL.
